Test results reported in a melting point compilation (Tetko et al.; mined from patent text by program, amines drawn as free bases though some values may be those of a salt).

Compound	melting point [°C]
COc1[nH]c(C)c(SC(F)(Cl)Cl)c1C#N	175
Cc1cc(-c2nnc3c4ccccc4c(OCc4ncn(C)n4)nn23)on1	270 to 272
Cc1cccc(Cl)c1C=NS	143
C#CC1(O)CCC2C3CC(C)C4=CC(=O)CCC4C3CCC21CC (configuration not stated)	148 to 151
CN(C)C1CCCN(C(=O)c2n[nH]c3ccccc23)C1 (configuration not stated)	141 to 142
Nc1ccc(Cl)c(C2SCCS2)c1	60 to 63
CCNC(=O)c1ccc(-n2nnc(C(=O)NC3CC3)c2CO)c(O)c1	185
COCC1(O)CCN(c2c(F)cc(N3C[C@H](CO)OC3=O)cc2F)CC1	117 to 119
CCOc1cncc(N2CCN3CCCC3C2)n1 (configuration not stated)	101 to 102
CC(C)(C)C1=C(c2ccc(C(=O)N3CCOCC3)c(O)c2)OCC1(C)C	141 to 142
C[C@]12CC[C@H](O)CC1=CCC1C2CC[C@@]2(C)C1CC[C@@H]2c1cn(Cc2ccccc2)nn1 (some centres not stated)	286 to 287
CCC(O)CC(O)CC (configuration not stated)	60 to 65
Nc1ncccc1Sc1ccccc1	108 to 109
COc1c([N+](=O)[O-])c([N+](=O)[O-])c(OC)c2[nH]c(C(F)(F)F)nc12	208 to 210
O=C(O)COc1ccc(OCC2CCN(c3ccncc3)CC2)cc1	278 to 281
CC(C)(C)CC(=O)Nc1cc(-c2ccnc3c(C(=O)c4cccs4)cnn23)ccc1F	180 to 181
Cc1nc2c(o1)-c1c(SC(C)C)sc(C(N)=O)c1CC2	230 to 231
Cc1c(-c2ccncc2)[nH]c2c1C(=O)CC(C)C2 (configuration not stated)	247 to 248
CCOC(=O)C1=C(C)NC(CSCCC#N)=C(C(=O)OCC)C1c1cccc([N+](=O)[O-])c1 (configuration not stated)	102 to 104
CC1(C)Oc2ccc(C#N)cc2[C@@H](N2CCCNC2=NC#N)[C@@H]1O (relative stereo)	152 to 153

Compound	melting point [°C]
Cc1cn(C2(C(=O)N(C)C)CCCC2)nc1-c1ccccc1	99 to 101
CC(C)N(N)C(=O)N1CCCC1C(=O)OC(C)(C)C (configuration not stated)	87 to 91
CC12CCC3C(CCC4C(=O)CCCC43C)C1CCC2O (configuration not stated)	123 to 126
CCCn1c(CCO)nc2c(N)nc3cc(OCCCNC(=O)C(C)C)ccc3c21	190 to 192
CC(C)(CO)CCCC(O)CCCC(O)CCCC(C)(C)CO (configuration not stated)	85 to 86
COC1NC(=O)N(C2CCCCC2)C1=O (configuration not stated)	135 to 137
CCCCOC(=O)C=Cc1ccc(C=CC(=O)OCCCC)c2nsnc12	90 to 94
Nc1ncnc2c1nnn2C1CCC(O)C1O (configuration not stated)	244 to 245
COc1ccc2c(c1)C1=C(CC2)NC(=O)CC1	227 to 228
O=C(C1CCN(c2ccncn2)C1)N1CCNCC1 (configuration not stated)	129 to 131
O=[N+]([O-])c1cccc(C(O)C(Cl)(Cl)Cl)c1 (configuration not stated)	91 to 95
O=C(O)c1conc1-c1ccccc1	163 to 164
CC(=O)N[C@@H](C)c1ccc(CCl)cc1	114 to 116
COc1ccccc1OCC(O)CN1CCC(N2CCNC2=O)CC1 (configuration not stated)	138
O=C(Nc1ccccc1C(F)(F)F)ONC1=Nc2ccc(Cl)cc2C(c2ccccc2)=NC1	190
CCCC(NS(N)(=O)=O)C(=O)OC (configuration not stated)	63 to 64
CN(C)C(=O)C(C)(C)n1cc(Cl)c(-c2ccccc2Cl)n1	161 to 163
O=C(O)c1csc2ccc(O)cc12	262 to 263
CC(C)(C)C1OC1C(O)c1ccc(F)cc1 (configuration not stated)	56 to 59
CSc1ccc(F)cc1C(C)=O	82 to 84.3

Continued, values first:

melting point [°C]	Compound
123	CN(C)S(=O)(=O)N(C)c1cccc2cc(-c3nccs3)[nH]c12
108 to 110	Cc1cc(-c2cc3cc(OCCNC[C@H](O)c4cccc(Cl)c4)ccc3o2)no1
171	CC(C)(C)c1cc(SCc2ccc(C(=O)O)cc2)cc(C(C)(C)C)c1O
142 to 143	CCn1nc(C)c(CN(C(=O)C2CCCc3ccccc32)c2ccc(C(C)C)cc2)c1C (configuration not stated)
70 to 71	COc1cc(-c2nn(C)c(C(F)(F)F)c2Cl)c(F)cc1Cl
188	O=C1C(=O)N2CCOc3cccc1c32
186 to 189	OCc1ccc(/C=C/c2ccc[nH]2)cc1
173 to 174	O=C(Nc1ccc(O)cc1)c1ccc(OC2CCCCO2)cc1 (configuration not stated)
162	CN(Cc1ccccc1)C(=O)CCC(=O)c1ccc(Cl)c(S(N)(=O)=O)c1
261	O=c1ccc2cc(I)ccc2[nH]1
134	c1ccc(C2(c3ccccc3)CCSCC2)cc1
85	CCCCOc1ccc2ccccc2c1-c1c(OCCCC)ccc2ccccc12
61 to 62	CC(C)(C)OC(=O)Nc1ccc(F)cc1C(F)(F)F
224	Cc1cc2cc(Oc3ccccc3)cnc2cc1C
280 to 282	CC1(N)CCN(c2c(F)c(F)c3c(=O)c(C(=O)O)cn(C4CC4)c3c2F)C1 (configuration not stated)
233 to 235	O=c1cc2c(nn1-c1ccc(Cl)cc1)-c1cc(F)ccc1S(=O)CC2 (configuration not stated)
196 to 198	Nc1ccc(C(Cc2ccccc2)C(=O)O)cc1 (configuration not stated)
115 to 119	C[C@@H](NC(=O)c1c(N)cc(Cl)cc1Cl)c1ccccc1
190 to 192	COc1ccc2c(c1OCc1ccc(C(=O)O)cc1)CC(C(=O)O)N(C(=O)C(c1ccccc1)c1ccccc1)C2 (racemic)

melting point [°C]	Compound
164 to 166	Cc1ccc(COc2ccc3c(c2)c(C=CC(=O)O)cn3CC(=O)N(C)CCc2ccccc2)cc1
> 350	O=c1[nH]c(Nc2ccccc2)nc2c1ncn2CCCCO
245 to 246	N#Cc1ccccc1C#CC1(C(F)(F)F)OC(=O)Nc2ccc(Cl)cc21 (racemic)
112 to 113	CC(Cc1c[nH]c2ccc(F)cc12)C(=O)O (configuration not stated)
235 to 240	O=C(NCc1ccc(Cl)cc1)c1cnc2c(F)c(Oc3ccc(CO)cc3)c(F)cc2c1O
92 to 96	Cc1cc(F)ccc1-c1ccc(S(=O)(=O)N2c3ccccc3CC2C(=O)NCc2ccccc2N)cc1 (configuration not stated)
230 to 232	N#Cc1cnn2c(-c3ccccc3)ccnc12
68 to 70	COc1cccc2c1CCC(C=O)C2=O (configuration not stated)
232 to 234	COc1cc2c(cc1Nc1ncc(C(F)(F)F)c(Nc3ccc(N4CCOCC4)cc3OC)n1)CCOC(=O)N2C
119 to 120	CCCCCCCC[C@@H](O)C(=O)Nc1cccc2nc(SC)ccc12
194	Cc1nn2c(=O)c(CCN3CCC(n4ccc5cc(F)ccc54)CC3)c(C)nc2s1
132	CN1CC(=O)Nc2ccccc21
103	CC(O)C(CCCc1ccccc1)n1ncc2c(=O)[nH]c(Cc3ccc(F)cc3)nc21 (configuration not stated)
103 to 105	COc1ccc2c(c1)C(=O)C(=Cc1cccc([N+](=O)[O-])c1)C(C)(C)O2
224 to 226	O=C(Nc1cccc(Nc2ccc3c(c2)NC(=O)C3=Cc2ccc[nH]2)c1)Nc1cc(F)c(F)cc1F
112 to 116	CNC(=O)N(C)c1nnc(SCc2cccc(F)c2)s1
174	CCOC(=O)c1nccn1C1Sc2ccccc2C1=O (configuration not stated)
132 to 133	Cc1ccccc1C(Oc1cc(OCc2ccncc2)ccc1C#N)c1nnn[nH]1 (racemic)
